Where two headings read alike, the source gives them in different places. Blank lines part the entries; values can stand above or below the molecule they belong to. Where a SMILES comes first, the peptide text is derived from it. The star is where a group is joined. CH2Cl = ClC*
Legend:
[1] = target: T1, GTVap (Rattus norvegicus, UniProt P97629); assay: GTVap inhibition by protease and aminopeptidase inhibitors, leu-p-nitroanilide substrate, HDM extract; assay type: biochemical; conditions: for IC50: HDM enzyme extract, inhibitor added 15 minutes prior to leu-p-nitroanilide substrate
T1 construct: the GTVaps were solubilized from GLUT4 vesicles, LDM, HDM, and PM using 0.1% Triton X-100; from tissue; host or cells: adipocytes of epididymal fat pads of Sprague-Dawley rats, HDM fraction (Triton X-100 extract)
T1 sequence (P97629 1-1025): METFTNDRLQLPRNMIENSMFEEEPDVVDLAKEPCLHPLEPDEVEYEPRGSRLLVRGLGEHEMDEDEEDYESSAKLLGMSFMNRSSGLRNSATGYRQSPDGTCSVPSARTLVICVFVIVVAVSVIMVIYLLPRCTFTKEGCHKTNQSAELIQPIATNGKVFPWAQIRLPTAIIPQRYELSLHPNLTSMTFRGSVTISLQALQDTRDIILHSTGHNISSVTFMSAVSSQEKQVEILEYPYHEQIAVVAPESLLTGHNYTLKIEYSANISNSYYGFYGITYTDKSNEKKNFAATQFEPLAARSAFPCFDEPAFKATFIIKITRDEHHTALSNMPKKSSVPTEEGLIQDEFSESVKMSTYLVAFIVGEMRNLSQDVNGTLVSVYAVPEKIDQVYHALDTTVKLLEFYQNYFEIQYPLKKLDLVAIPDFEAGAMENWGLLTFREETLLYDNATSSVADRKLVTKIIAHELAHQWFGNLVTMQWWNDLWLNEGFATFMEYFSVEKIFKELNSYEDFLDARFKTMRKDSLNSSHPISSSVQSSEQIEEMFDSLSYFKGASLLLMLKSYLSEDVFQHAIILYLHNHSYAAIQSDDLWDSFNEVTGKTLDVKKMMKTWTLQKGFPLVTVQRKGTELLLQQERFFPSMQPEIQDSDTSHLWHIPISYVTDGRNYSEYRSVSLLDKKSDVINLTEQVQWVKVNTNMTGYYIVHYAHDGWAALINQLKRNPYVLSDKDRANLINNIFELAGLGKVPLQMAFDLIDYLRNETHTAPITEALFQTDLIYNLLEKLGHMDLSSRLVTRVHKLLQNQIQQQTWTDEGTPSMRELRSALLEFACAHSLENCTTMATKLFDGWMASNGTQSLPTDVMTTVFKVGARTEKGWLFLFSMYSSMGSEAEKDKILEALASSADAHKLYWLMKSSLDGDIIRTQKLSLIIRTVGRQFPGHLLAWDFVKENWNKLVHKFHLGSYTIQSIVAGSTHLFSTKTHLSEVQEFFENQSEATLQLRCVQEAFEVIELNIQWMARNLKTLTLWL

[2] = target: T2, GLUT4 vesicle GTVap (Rattus norvegicus, UniProt P97629); assay: Relative activity of GLUT4 vesicle GTVap with amino acid β-napthylamide substrates; assay type: biochemical; conditions: GLUT4 vesicle extract; substrate 200 uM
T2 construct: a GLUT4 vesicle extract was prepared as described above and incubated with each substrate; from tissue; host or cells: GLUT4 vesicles immunopurified from the LDM fraction of rat epididymal adipocytes
T2 sequence (P97629 1-1025): T1 sequence (P97629 1-1025)
Procedure: Unless otherwise indicated, the GTVaps were solubilized from GLUT4 vesicles, LDM, HDM, and PM using 0.1% Triton X-100 in 20 mM Tris, pH 7.5 at 4° C. for 15 minutes. The insoluble material was pelleted at 20,000×g for 20 minutes and discarded. […] The results are reported as pmoles p-nitroanilide produced per μg protein/hour at 37° C. unless otherwise noted.
To characterize the relative reactivities of GTVap to different amino acid β-napthylamide substrates, a GLUT4 vesicle extract was prepared as described above and incubated with each substrate at a concentration of 200 uM as described above.

[3] = target: T1, GTVap; assay: Effect of ions on GTVap activity, Triton X-100 extracts of HDM; assay type: biochemical
[4] = target: T1, GTVap; assay: Relative activity of GTVap with amino acid p-nitroanilide substrates, HDM extract; assay type: biochemical; conditions: substrate 1.6 mM, 37° C.
Procedure: The […] can be maximally extracted (>95%) from the LDM, HDM, and PM membranous compartments using low concentrations of detergents. Unless otherwise indicated, the […] were solubilized from GLUT4 vesicles, LDM, HDM, and PM using 0.1% Triton X-100 in 20 mM Tris, pH 7.5 at 4° C. for 15 minutes. The insoluble material was pelleted at 20,000×g for 20 minutes and discarded. […] The UV absorbance of the p-nitroanilide product was measured at 405 nm and quantified by comparison to p-nitroanilide standards. The results are reported as pmoles p-nitroanilide produced per μg protein/hour at 37° C. unless otherwise noted. Alternatively, the results are presented as change in OD at 405 nm if the protein was too low to determine (eg column fractions) or a relative comparison was being made. […] To characterize the relative reactivities of GTVap to different amino acid p-nitroanilide substrates, an HDM extract was prepared as described above and incubated with each substrate at a concentration of 1.6 mM as described above.

[5] = target: T1, GTVap; assay: Ion stabilization of GTVap activity over time at 4° C.; assay type: biochemical; conditions: HDM extract in 20 mM Tris-HCl pH 7.5 at 4° C.
[6] = target: GTVap (Glucose Transporter Vesicle aminopeptidase) as present in rat adipocyte HDM and HDM extracts (rat); assay: batch adsorption of solubilised HDM extract on wheat germ lectin-Sepharose
[7] = test system: GTVap; assay: Insulin-stimulated translocation of GTVap to the plasma membrane in rat adipocytes; assay type: cell-based; conditions: insulin 10 nM, 20 minutes at 37° C.
Procedure: Epididymal fat pads from 125 g Sprague-Dawley rats were removed and immediately placed in KRBH buffer containing 1% BSA, 2.5 mM glucose and 200 nM adenosine. The fat was minced, collagenase was added to 3 mg/ml, and the mixture was incubated at 37° C. for 45 minutes with shaking. The dissociated adipocytes were filtered through a 250 micron nylon screen and washed 3 times (using mild centrifugation) with KRBH containing 1% BSA and 200 nM adenosine. The cells were resuspended in the wash buffer containing 3% BSA.
The membrane fractions PM, HDM and LDM were prepared generally according to Simpson et. al., Biochimica et Biophysica Acta, 763, 393-407 (1983). Isolated adipocytes were homogenized in a chilled Wheaton 55 ml teflon pestle homogenizer for ten strokes. The fat layer was removed following a 10,000×g centrifugation and the remaining material was rehomogenized. The PM fraction was pelleted at 16,000×g and the supernatant was recentrifuged to remove any additional PM. […]
GLUT4 is known to translocate from an intracellular vesicular compartment to the plasma membrane upon insulin stimulation. […] The insulin stimulated and control adipocytes were fractionated into the subcellular compartments and analyzed for GTVap enzyme and protein (Western blot) as previously described.

[8] = target: T1, GTVap; assay: GTVap cleavage of insulin by HDM, mass spectrometry; assay type: biochemical; conditions: HDM 1.8 mg/ml, 120 μg/ml porcine insulin, 37° C., pH 7.5
Procedure: HDM (1.8 mg/ml) was incubated at 37° C. with 120 μg/ml porcine insulin in 50 mM sodium borate, pH 7.5, containing the following protease inhibitors that were previously shown to have no inhibitory effect on GTVap: 2 mM benzamidine, 2 μM leupeptin, 1 μM pepstatin, 1 mM DFP, and 150 μM PMSF. The reaction was terminated after various incubation times by centrifugation of aliquots at 200,000×g to remove the HDM. The insulin products were detected by mass spectrometry or were first chromatographed on a 2.1×15 cm Beckman Spherisorb C18 column at 0.25 ml/min. in a 4 hour linear gradient of 27% to 31% acetonitrile in 1% TFA adjusted to pH 3.0 with TEA, prior to mass spectroscopic analysis.

[9] = incubated 15 minutes at 37° C. before leu-p-nitroanilide

Molecule: c1ccc(-c2ccccn2)nc1 [dipyridyl]
inhibition of GTVap activity [1]: > 98%

Molecule: O[C@H](CS)[C@H](O)CS (racemic) [Dithiothreitol]
activation at 200 µM ([1]; at 0.2 mM, read-out: increase of enzyme activity): 20%
inhibition at 5000 µM ([1]; at 5 mM): 30%

Molecule: N=C(N)c1ccccc1 [benzamidine, Benzamidine]
effect on GTVap activity [1]: no effect

Molecule: N=C(N)NCCCC(N)C(=O)Nc1ccc2ccccc2c1 (stereo not drawn) [arginine β-napthylamide]
activity of GLUT4 vesicle GTVap with amino acid-β-napthylamide substrate [2]: 6.5 nmoles/25 uL extract/hr

Molecule: CC(=O)N[C@@H](CC(C)C)C(=O)N[C@@H](CC(C)C)C(=O)N[C@H](C=O)CCCNC(=N)N [leupeptin, Leupeptin]
effect on GTVap activity [1]: no effect

Molecule: [Mg] [magnesium]
effect of ion on GTVap enzyme activity [3, 9]: partially activate, but at high μmolar to mmolar ion concentrations

Molecule: [Zn+2] [Zinc]
stabilization of GTVap activity against time dependent inactivation [5]: do not stabilize the enzyme
effect of ion on GTVap enzyme activity [3, 9]: optimally activate at μmolar concentrations and inhibit at mmolar concentrations

Molecule: lithium
effect of ion on GTVap enzyme activity ([3]; between 1 μM and 10 mM): no effect

Molecule: [Ca] [Calcium]
stabilization of GTVap activity against time dependent inactivation [5]: stabilizes the enzyme activity
effect of ion on GTVap enzyme activity [3, 9]: partially activate, but at high μmolar to mmolar ion concentrations

Molecule: insulin: Insulin (porcine) obtained from Eli Lilly
GTVap translocation (Western blot reactivity) [7]: translocates to the plasma membrane
increase of GTVap enzyme activity in the plasma membrane [7]: 29%
cleavage of insulin by GTVap (mass spectroscopic analysis) [8]: N-terminal residues phenylalanine and valine of the B-subunit of insulin were removed sequentially

Molecule: CC(C)C[C@H](NC(=O)[C@@H](N)CC(C)C)C(=O)N[C@@H](Cc1ccccc1)C(=O)CCl [Leu-Leu-Phe-chloromethyl ketone] (H-Leu-Leu-Phe-CH2Cl)
IC50 [1]: 1000 µM

Molecule: CCCCC[C@H](CC(=O)NO)C(=O)N[C@H](C(=O)N1CCC[C@H]1CO)C(C)C [actinonin, Actinonin]
IC50 [1]: > 1000 µM

Molecule: O=S(=O)(F)Cc1ccccc1 [PMSF, phenylmethylsulfonyl fluoride]
effect on GTVap activity [1]: no effect

Continued, in another order:

activity of GLUT4 vesicle GTVap with amino acid-β-napthylamide substrate [2]: 2.9 nmoles/25 uL extract/hr
Molecule: CSCCC(N)C(=O)Nc1ccc2ccccc2c1 (stereo not drawn) [methionine β-napthylamide]

activity of GLUT4 vesicle GTVap with amino acid-β-napthylamide substrate [2]: 0.9 nmoles/25 uL extract/hr
Molecule: NC(Cc1ccccc1)C(=O)Nc1ccc2ccccc2c1 (stereo not drawn) [phenylalanine β-napthylamide]

effect of ion on GTVap enzyme activity ([3]; between 1 μM and 10 mM): no effect
Molecule: [K+] [potassium]

activity of GTVap with amino acid-p-nitroanilide substrate [4]: 0.08 nmoles/μg protein/hr
Molecule: NCC(=O)Nc1ccc([N+](=O)[O-])cc1 [glycine p-nitroanilide]

activity of GTVap with amino acid-p-nitroanilide substrate [4]: 0.35 nmoles/μg protein/hr
Molecule: O=C(Nc1ccc([N+](=O)[O-])cc1)[C@@H]1CCCN1 [proline p-nitroanilide]

stabilization of GTVap activity against time dependent inactivation [5]: do not stabilize the enzyme
Molecule: [Mn+2] [manganese]
effect of ion on GTVap enzyme activity [3, 9]: optimally activate at μmolar concentrations and inhibit at mmolar concentrations

IC50 [1]: 2 µM
Molecule: CC(C)C[C@H](N)CS [leuthiol, L-leucinethiol]

stabilization of GTVap activity against time dependent inactivation [5]: do not stabilize the enzyme
Molecule: [Co+2] [cobalt]
effect of ion on GTVap enzyme activity [3, 9]: optimally activate at μmolar concentrations and inhibit at mmolar concentrations

activity of GTVap with amino acid-p-nitroanilide substrate [4]: 0.09 nmoles/μg protein/hr
Molecule: CC(C)[C@H](N)C(=O)Nc1ccc([N+](=O)[O-])cc1 [valine p-nitroanilide]

percent of total aminopeptidase activity bound [6]: 93%
Molecule: wheat germ lectin-Sepharose 6 MB (tool reagent)

inhibition of GTVap activity ([1]; at >0.2 mM, relative to inhibitor-free control): > 98%
Molecule: c1cnc2c(c1)ccc1cccnc12 [phenanthroline]
